Assay results as given in patent US10414797B2, “Gelatinase inhibitors and use thereof” (Iproteos S.L, priority 2015, dated 2019).
Where a SMILES comes first, the peptide text is derived from it. [ ]: non-standard residue; d: D form. The star is where a group is joined. ξ: configuration not given here. NMeIle(3ξ) = CCC(C)[C@H](NC)C(=O)O; NMeQ = CN[C@@H](CCC(N)=O)C(=O)O; Ile(3ξ) = CCC(C)[C@H](N)C(=O)O; Hexanoyl = CCCCCC(=O)*; NHOH = ON*

How the values were obtained:
MMP-2 = MMP-2 (Homo sapiens (Human), UniProt P08253); assay: MMP-2 inhibition assay (fluorimetric, DQ gelatin substrate); type: biochemical; conditions: recombinant MMP-2 (CHO cells) 85 ng/mL, DQ gelatin 50 μg/mL, 2 hours at room temperature, pH 7.6
Experimental: (§1) All the experiments were done in 1× reaction buffer, which was obtained from a 10× reaction buffer solution. The content of the 10× reaction buffer was: 50 mL of 0.5 M Tris-HCl, 1.5 M NaCl, 50 mM CaCl2 and 2 mM sodium azide at pH 7.6. To obtain the 1× reaction buffer 4 mL of the 10× reaction buffer were diluted in 36 mL of H2O.
Recombinant MMP-2 expressed in Chinese hamster ovary (CHO) cells was obtained from Merck-Millipore (catalog number PF023-5UG). DQ gelatin from pig skin fluorescein conjugated (MMP-2 substrate) was obtained from Life Technologies (catalog number E12055).
Preparation of the MMP-2 for the activity assay: MMP-2 was provided as a stock solution (0.1 mg/mL). The enzyme was diluted in 1× reaction buffer to a final concentration of 5 μg/mL.
(§2) Preparation of the DQ gelatin (substrate) solution for the activity assay: the solid form of the substrate was dissolved in water in order to obtain a stock solution of 1 mg/mL.
(§3) Procedure: The enzymatic assays were performed in 96-well microtiter plate, which allowed simultaneous monitoring of multiple reactions. For each reaction, 86.3 μL of 1× reaction buffer (pH 7.6), 1.7 μL of MMP-2 (final concentration 85 ng/mL) and 2 μL of the corresponding new compound were added to each well. A stock solution of new compound was prepared in DMSO (100 mM), and dilutions were prepared from this stock solution with DMSO. Finally, to the mixture contained in each well 10 μL of the substrate were added (final concentration 50 μg/mL). The reaction was incubated for 2 hours at room temperature in an orbital shaker (100 rpm).
(§4) The inhibitory activity of the new compound was measured fluorimetrically. The excitation and emission wavelengths were 483 and 525 nm, respectively.
(§5) Inhibitory activity at several concentration points (ranging from 100 pM to 200 μM MMP) were measured for each compound. The inhibitory activity on MMP-2 and MMP-9 was calculated according to eq 1. For each new compound, the fluorescence in the presence (a) and in the absence (b) of the corresponding MMP was measured. The maximum fluorescence (0% inhibitory activity) was obtained from a sample of the corresponding MMP in the absence of inhibitory compounds. To estimate the inhibitory potency of the novel compounds, activities were plotted against the log concentration of the compound, adjusting to a sigmoid curve using GraphPad Prism software, and the IC50 value, defined as the concentration of compound required to inhibit 50% of the corresponding MMP activity, was determined from resulting curve.
(§6) a corresponds to fluorescence intensity in the presence of substrate+test compound+MMP
(§7) b corresponds to the fluorescence intensity in the presence of substrate+tested compound
(§8) c corresponds to the fluorescence intensity in the presence of substrate+MMP
(§9) d corresponds to the fluorescence intensity of the presence of substrate

MMP-9 = MMP-9 inhibition assay (fluorimetric, DQ gelatin substrate); type: biochemical; conditions: recombinant MMP-9 (Merck-Millipore for examples 1 to 9 and comparative examples; Enzo for examples 10 to 16), DQ gelatin 50 μg/mL, 4 hours at room temperature, pH 7.6
Experimental: as §1
Recombinant MMP-9 expressed was obtained from Merck-Millipore (catalog number PF140-5UG, used in examples 1 to 9 and comparative examples) and Enzo (catalog number-SE360-0010, used in examples 10 to 16). DQ gelatin from pig skin fluorescein conjugated (MMP-9 substrate) was obtained from Life Technologies (catalog number E12055).
Preparation of the MMP-9 for the activity assay: MMP-9 was provided as a stock solution (0.1 mg/mL). The enzyme was diluted in 1× reaction buffer to a final concentration of 5 μg/mL.
as §2
as §3, with “reaction, 84.6” for “reaction, 86.3”, “7.6), […]” for “7.6), 1.7”, “of MMP-9” for “of MMP-2”, “for 4” for “for 2”
as §4, §5, §6, §7, §8, §9

Sequence of MMP-9 (P14780 107-707 limits assumed): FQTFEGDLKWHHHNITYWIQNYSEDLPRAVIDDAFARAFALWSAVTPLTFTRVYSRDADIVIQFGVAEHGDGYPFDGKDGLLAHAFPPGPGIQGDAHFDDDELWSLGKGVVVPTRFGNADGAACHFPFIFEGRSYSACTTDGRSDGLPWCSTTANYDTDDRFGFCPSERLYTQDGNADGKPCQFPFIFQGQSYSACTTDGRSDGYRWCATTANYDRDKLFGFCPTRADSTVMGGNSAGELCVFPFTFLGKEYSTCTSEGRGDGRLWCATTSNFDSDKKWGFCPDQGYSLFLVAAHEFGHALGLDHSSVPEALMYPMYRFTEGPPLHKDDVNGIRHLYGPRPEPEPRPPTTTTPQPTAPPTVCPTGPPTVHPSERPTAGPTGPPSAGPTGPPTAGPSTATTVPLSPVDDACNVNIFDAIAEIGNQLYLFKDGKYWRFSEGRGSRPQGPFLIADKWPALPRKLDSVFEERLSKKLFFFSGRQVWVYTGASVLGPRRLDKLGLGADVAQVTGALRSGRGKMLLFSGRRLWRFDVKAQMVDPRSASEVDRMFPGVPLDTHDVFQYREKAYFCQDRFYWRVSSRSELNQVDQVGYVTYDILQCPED
Sequence of MMP-2 (P08253 110-660): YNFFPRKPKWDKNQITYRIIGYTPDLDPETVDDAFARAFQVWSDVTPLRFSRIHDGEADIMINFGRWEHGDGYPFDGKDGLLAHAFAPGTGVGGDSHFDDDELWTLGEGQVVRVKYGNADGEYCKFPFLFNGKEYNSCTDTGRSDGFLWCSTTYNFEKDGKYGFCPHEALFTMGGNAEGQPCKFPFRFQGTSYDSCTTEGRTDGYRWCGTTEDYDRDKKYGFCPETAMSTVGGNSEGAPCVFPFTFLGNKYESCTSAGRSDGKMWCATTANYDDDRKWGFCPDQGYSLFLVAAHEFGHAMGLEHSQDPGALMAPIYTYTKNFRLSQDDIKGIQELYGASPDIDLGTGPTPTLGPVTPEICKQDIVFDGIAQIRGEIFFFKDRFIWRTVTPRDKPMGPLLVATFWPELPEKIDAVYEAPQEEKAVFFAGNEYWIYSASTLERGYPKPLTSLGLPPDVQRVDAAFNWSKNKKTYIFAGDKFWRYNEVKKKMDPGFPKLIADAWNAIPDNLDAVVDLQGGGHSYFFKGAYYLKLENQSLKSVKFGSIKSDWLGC

IC50 (MMP-2) | IC50 (MMP-9) | SMILES
110 µM | 16 µM | CCC(C)[C@@H](C(=O)N[C@@H](Cc1c[nH]c2ccccc12)C(=O)NO)N(C)C(=O)[C@@H]1CCCN1C(C)=O (stereo partly drawn) [Example C21, (2S)-1-acetyl-N-[(1S)-1-[[(1S)-2-(hydroxyamino)-1-(1H-indol-3-ylmethyl)-2-oxo-ethyl]carbamoyl]-2-methyl-butyl]-N-methyl-pyrrolidine-2-carboxamide, reference compound] (Ac-Pro-[NMeIle(3ξ)]-Trp-{NHOH})
> 2000 µM | > 1000 µM | CCCCCC(=O)N1CCC[C@H]1C(=O)N(C)[C@@H](CCC(N)=O)C(=O)N[C@@H](Cc1c[nH]c2ccccc12)C(=O)NO [Example C23, (2S)-2-[[(SS)-1-hexanoylpyrrolidine-2-carbonyl)-methyl-amino]-N-[(1S)-2-(hydroxyamino)-1-(1H-indol-3-ylmethyl)-2-oxo-ethyl]pentanediamide, reference compound] (Hexanoyl-Pro-[NMeQ]-Trp-{NHOH})
710 µM | 240 µM | CCC(C)[C@H](NC(=O)[C@H](Cc1c[nH]c2ccccc12)NC(=O)[C@H](CCC(N)=O)NC(C)=O)C(=O)NO (stereo partly drawn) [Example C18, (2 S)-2-acetamido-N-[(1S)-2-[[(1S)-1-(hydroxycarbamoyl)-2-methyl-butyl]amino]-1-(1H-indol-3-ylmethyl)-2-oxo-ethyl]pentanediamide, reference compound] (Ac-Gln-Trp-[Ile(3ξ)]-{NHOH})
> 2000 µM | > 2000 µM | CCC(C)[C@H](NC(=O)[C@@H]1CCCN1C(=O)[C@H](CCC(N)=O)NC(C)=O)C(=O)NO (stereo partly drawn) [Example C19, (2S)-1-[(2S)-2-acetamido-5-amino-5-oxo-pentanoyl]-N-[(1S)-1-(hydroxycarbamoyl)-2-methyl-butyl]pyrrolidine-2-carboxamide, reference compound] (Ac-Gln-Pro-[Ile(3ξ)]-{NHOH})
